In US12281328B2, “Photoreceptor cells for the treatment of retinal diseases” (Hadasit Medical Research Services and Development Ltd., priority 2017, dated 2025):

Test system: hESC-derived spheroid bodies (SBs), HAD-C102
Assay: Real-time PCR of eye field, retinal progenitor and photoreceptor progenitor markers in SBs cultured with factor combinations
Format: cell-based, human
Description: SBs were generated under non-adherent conditions (day 0) from cord-feeder-conditioned media culture systems, or from feeder free laminin 521 culture systems, as described above. SBs were cultured in the following medium: […]® minus medium (Biological industries, Beit Haemek, Israel) supplemented with 50 U/ml penicillin and 50 μg/ml streptomycin (Gibco-BRL, Carlsbad, Calif.). In the initial 0 to 6 days of SBs culture (under non-adherent conditions), the medium was supplemented with 10 mM nicotinamide (Sigma, St. Louis, Mo.). It was further supplemented with the addition of the following factors in different combinations: 10 mM nicotinamide (Sigma, St. Louis, Mo.), 3 μM endo-IWR 1 (IWR1e; TOCRIS, a biotechne brand, Minneapolis, Minn.), 20 ng/ml bFGF (PeproTech Inc., Rocky Hill, N.J.), 5 ng/ml IGF1 (R&D Systems Inc., Minneapolis, Minn.) and 3 μM CHIR99021 (CHIR; PeproTech Inc., Rocky Hill, N.J.).
Real-time PCR was used to determine the expression of eye field and retinal progenitor markers and photoreceptor progenitor markers. mRNA was extracted using QUICK-RNA Micro Prep, Zymo Research (Cat #R1051) and the RT reaction was accomplished with QSCRIPT™ reverse transcriptase (Quanta BioScience Inc., Gaithersburg, Md.). The levels of transcripts were monitored using commercially available TAQMAN™ Assay-on-Demand Gene Expression Products (Applies Biosystems, Foster City, Calif.). The expression of eye field and photoreceptor precursor markers were analyzed at time points of 14 days to 8 weeks. At Time point 0 (TO), the derivation of SBs and the beginning of their culture in non-adherent culture dishes were initiated.
SBs were treated with combinations of NIC, bFGF, CHIR and IGF1 for 1 month. At the end of these culture periods, the expression of eye field and retinal progenitor markers (Rx, Six3, Six6, Chx10) and photoreceptor progenitor markers (NRL, CRX) was analyzed by Real-time PCR. […] FIG. 3 through FIG. 8 show graphs illustrating marker expression of Six3, Six6, Chx10, Rx, CRX, and NRL, respectively, in SBs cultured in NIC+bFGF or NIC+IGF or NIC+bFGF+CHIR for 4 weeks. Relative quantity of gene expression is plotted against different conditions. FIG. 9 through FIG. 14 show graphs illustrating marker expression of Six3, Six6, Chx10, Rx, CRX, and NRL, respectively, in SBs cultured in NIC+bFGF or NIC+bFGF+CHIR for 17 days. The control, HADC102, was comprised of undifferentiated HAD-C102 cells cultured for 6-7 days in […]® hPSC XF*Xeno-free medium for Human Pluripotent Stem Cells (Biological Industries).

With O=C(Nc1cccc2cccnc12)c1ccc(N2C(=O)[C@@H]3[C@H](C2=O)[C@@H]2C=C[C@H]3C2)cc1 [IWR1e, 4-[(3aR,4S,7R,7aS)-1,3,3a,4,7,7a-hexahydro-1,3-dioxo-4,7-metha-no-2H-isoindol-2-yl]-N-8-quinolinyl-benzamide] the “expression of markers of hESC-derived photoreceptor progenitors” value (SBs cultured 20 days, Pax6, Six3, Rx, Six6, Chx10, FIG. 21-25) was “induced the expression of markers of hESC-derived photoreceptor progenitors” and the “expression of the eye field and retinal progenitor markers Pax6, Rx, Six3, Six6 and Chx10” value (compared among NIC+IWR1e, NIC, IWR1e, IWR1e+bFGF, FIG. 26-35) was “much lower”.
In the case of NC(=O)c1cccnc1 [NIC, nicotinamide], the “generation of photoreceptor cells from human pluripotent stem cells” value (evidenced by expression of markers of photoreceptor cells (RT-PCR)) is reported as “sufficient to generate photoreceptor cells from human pluripotent stem cells”.
In the case of “Laminin 521: laminin 521 (BioLamina) coating for feeder-free culture of hESCs before SB formation”, the “expression of all the markers analyzed (Rx, Pax6, Six3, Six6, Chx10)” value (SBs from hESCs cultured on laminin 521 vs gelatin in cord feeder conditioned medium, NIH 5 weeks, FIG. 50-58) is reported as “higher” and the efficiency of differentiation (initial culturing of hESC on laminin 521 vs gelatin in feeder cell conditioned medium) is reported as “more efficient differentiation result”.
